Measured values: patent publication EP4745137A1 (Gluetacs Therapeutics (Shanghai) Co., Ltd., priority 2023, dated 2025)

Key:
Type in all cases: cell-based
Settings in all cases: 24 hours of compound treatment
WEE1 = molecular target: T1, WEE1 (Homo sapiens, UniProt P30291+Q96SW2); test: Western-blot assay of substrate protein degradation in hPBMCs, WEE1
T1 construct: endogenous in cells; host or cells: hPBMCs (Milecell Biotechnologies)

IKZF1 = molecular target: T2, IKZF1 (Homo sapiens, UniProt Q13422+Q96SW2); test: Western-blot assay of substrate protein degradation in hPBMCs, IKZF1
T2 construct: endogenous in cells; host or cells: hPBMCs (Milecell Biotechnologies)

IKZF2 = molecular target: T3, IKZF2 (Homo sapiens, UniProt Q96SW2+Q9UKS7); test: Western-blot assay of substrate protein degradation in hPBMCs, IKZF2
T3 construct: endogenous in cells; host or cells: hPBMCs (Milecell Biotechnologies)
T3 sequence (Q9UKS7 whole entry): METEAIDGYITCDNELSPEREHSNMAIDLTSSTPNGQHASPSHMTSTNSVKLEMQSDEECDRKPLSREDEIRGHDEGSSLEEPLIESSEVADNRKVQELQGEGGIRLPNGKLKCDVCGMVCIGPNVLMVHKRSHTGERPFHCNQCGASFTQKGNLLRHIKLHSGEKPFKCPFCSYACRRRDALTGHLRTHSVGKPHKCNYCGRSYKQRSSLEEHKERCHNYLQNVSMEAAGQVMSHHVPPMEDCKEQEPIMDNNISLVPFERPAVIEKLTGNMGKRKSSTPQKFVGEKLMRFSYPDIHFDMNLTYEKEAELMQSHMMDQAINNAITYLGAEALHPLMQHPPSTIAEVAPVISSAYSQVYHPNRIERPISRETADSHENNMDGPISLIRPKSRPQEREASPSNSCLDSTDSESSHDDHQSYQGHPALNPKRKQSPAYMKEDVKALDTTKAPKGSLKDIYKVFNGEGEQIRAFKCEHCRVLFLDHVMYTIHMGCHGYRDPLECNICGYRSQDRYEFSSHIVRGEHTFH
T3 sequence (Q96SW2 whole entry): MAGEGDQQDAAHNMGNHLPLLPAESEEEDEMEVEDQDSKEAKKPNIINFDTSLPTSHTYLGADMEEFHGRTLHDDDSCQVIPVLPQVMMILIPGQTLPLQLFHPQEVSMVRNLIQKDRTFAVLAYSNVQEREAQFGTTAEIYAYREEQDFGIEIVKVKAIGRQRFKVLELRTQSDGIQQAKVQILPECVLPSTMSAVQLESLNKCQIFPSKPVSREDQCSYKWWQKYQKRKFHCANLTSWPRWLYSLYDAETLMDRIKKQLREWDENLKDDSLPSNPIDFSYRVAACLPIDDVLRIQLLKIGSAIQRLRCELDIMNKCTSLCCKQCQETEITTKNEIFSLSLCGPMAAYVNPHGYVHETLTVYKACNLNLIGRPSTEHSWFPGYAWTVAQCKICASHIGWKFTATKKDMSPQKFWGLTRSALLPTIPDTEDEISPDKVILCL
T3 sequence (Q16531 whole entry partner): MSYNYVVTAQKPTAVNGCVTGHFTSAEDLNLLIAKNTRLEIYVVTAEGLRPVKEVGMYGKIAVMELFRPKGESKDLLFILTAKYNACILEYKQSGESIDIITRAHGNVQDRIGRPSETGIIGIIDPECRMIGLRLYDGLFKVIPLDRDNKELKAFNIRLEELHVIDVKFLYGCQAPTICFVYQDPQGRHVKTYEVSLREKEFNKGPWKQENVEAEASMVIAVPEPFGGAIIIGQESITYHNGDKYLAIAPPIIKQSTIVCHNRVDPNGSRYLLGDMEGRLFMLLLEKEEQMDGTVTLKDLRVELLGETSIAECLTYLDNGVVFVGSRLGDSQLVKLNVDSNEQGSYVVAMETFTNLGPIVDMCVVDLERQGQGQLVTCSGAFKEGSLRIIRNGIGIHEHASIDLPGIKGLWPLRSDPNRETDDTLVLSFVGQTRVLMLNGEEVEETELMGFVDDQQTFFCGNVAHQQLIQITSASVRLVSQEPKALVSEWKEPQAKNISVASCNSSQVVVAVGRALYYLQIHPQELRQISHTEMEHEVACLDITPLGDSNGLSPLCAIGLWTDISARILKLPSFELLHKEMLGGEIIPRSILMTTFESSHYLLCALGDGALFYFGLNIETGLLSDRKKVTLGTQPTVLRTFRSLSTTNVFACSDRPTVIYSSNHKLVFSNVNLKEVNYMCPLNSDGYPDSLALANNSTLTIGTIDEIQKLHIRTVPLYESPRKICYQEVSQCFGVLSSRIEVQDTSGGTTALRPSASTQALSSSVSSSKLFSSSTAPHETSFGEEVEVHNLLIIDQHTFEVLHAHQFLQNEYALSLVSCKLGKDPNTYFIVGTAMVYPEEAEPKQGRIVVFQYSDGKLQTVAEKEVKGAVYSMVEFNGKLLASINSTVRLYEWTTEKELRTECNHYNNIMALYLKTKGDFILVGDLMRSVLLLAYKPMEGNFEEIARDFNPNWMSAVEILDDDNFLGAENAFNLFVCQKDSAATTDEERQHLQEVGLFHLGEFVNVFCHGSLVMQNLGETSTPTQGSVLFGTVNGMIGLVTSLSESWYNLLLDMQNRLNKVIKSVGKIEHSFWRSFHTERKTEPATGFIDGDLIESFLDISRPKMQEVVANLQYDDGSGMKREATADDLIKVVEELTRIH

CK1α = molecular target: T4, CK1α (Homo sapiens, UniProt P48729+Q96SW2); test: Western-blot assay of substrate protein degradation in hPBMCs, CK1α
T4 construct: endogenous in cells; host or cells: hPBMCs (Milecell Biotechnologies)
T4 sequence (P48729 whole entry): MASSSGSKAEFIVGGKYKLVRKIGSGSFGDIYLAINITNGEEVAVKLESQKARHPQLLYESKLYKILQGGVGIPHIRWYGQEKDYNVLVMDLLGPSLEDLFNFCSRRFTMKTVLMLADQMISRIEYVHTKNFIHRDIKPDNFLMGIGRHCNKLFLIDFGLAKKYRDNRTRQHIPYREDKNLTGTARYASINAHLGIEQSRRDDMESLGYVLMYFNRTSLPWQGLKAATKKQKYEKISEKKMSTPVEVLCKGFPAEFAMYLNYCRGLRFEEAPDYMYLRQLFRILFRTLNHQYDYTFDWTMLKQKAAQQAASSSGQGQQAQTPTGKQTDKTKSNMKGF
T4 sequence (Q96SW2 whole entry): as the sequence (Q96SW2 whole entry) above
T4 sequence (Q16531 whole entry partner): as the sequence (Q16531 whole entry partner) above

IKZF3 = molecular target: T5, IKZF3 (Homo sapiens, UniProt Q96SW2+Q9UKT9); test: Western-blot assay of substrate protein degradation in hPBMCs, IKZF3
T5 construct: endogenous in cells; host or cells: hPBMCs (Milecell Biotechnologies)
T5 sequence (Q9UKT9 whole entry): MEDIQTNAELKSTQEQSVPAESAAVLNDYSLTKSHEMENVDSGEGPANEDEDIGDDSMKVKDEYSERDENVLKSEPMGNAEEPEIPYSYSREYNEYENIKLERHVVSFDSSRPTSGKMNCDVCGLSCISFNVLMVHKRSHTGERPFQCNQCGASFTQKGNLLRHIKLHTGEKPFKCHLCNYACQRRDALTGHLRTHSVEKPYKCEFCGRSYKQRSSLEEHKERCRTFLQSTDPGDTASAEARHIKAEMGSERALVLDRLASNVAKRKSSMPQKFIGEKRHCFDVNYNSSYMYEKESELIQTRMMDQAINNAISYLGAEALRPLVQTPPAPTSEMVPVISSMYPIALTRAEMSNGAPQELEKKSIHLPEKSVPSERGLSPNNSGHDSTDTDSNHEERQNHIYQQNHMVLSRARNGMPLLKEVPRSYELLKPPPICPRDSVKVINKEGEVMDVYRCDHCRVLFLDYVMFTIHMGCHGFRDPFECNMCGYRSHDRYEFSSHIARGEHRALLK
T5 sequence (Q96SW2 whole entry): as the sequence (Q96SW2 whole entry) above
T5 sequence (Q16531 whole entry partner): as the sequence (Q16531 whole entry partner) above

GSPT1 = molecular target: T6, GSPT1 (Homo sapiens, UniProt P15170+Q96SW2); test: Western-blot assay of substrate protein degradation in hPBMCs, GSPT1
T6 construct: endogenous in cells; host or cells: hPBMCs (Milecell Biotechnologies)
T6 sequence (P15170 whole entry): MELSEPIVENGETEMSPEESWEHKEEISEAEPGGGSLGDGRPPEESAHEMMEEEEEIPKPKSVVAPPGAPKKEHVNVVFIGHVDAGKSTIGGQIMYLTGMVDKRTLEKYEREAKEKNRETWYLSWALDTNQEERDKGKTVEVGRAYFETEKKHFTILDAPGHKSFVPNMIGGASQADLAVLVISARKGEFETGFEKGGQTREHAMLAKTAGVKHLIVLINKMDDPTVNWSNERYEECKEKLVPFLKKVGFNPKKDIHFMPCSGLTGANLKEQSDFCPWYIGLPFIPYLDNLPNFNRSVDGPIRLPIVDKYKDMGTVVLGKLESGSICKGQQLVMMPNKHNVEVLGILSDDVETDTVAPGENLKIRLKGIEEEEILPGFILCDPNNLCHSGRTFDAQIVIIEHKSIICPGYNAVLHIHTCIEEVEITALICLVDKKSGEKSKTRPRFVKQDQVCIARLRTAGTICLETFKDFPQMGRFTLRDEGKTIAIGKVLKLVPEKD
T6 sequence (Q96SW2 whole entry): as the sequence (Q96SW2 whole entry) above
T6 sequence (Q16531 whole entry partner): as the sequence (Q16531 whole entry partner) above

[1] = 50 nM and 500 nM tested (concentration behind the class not stated)
[2] = compounds tested at 50 nM and 500 nM (concentration of the table not stated)

T1 sequence (P30291 whole entry): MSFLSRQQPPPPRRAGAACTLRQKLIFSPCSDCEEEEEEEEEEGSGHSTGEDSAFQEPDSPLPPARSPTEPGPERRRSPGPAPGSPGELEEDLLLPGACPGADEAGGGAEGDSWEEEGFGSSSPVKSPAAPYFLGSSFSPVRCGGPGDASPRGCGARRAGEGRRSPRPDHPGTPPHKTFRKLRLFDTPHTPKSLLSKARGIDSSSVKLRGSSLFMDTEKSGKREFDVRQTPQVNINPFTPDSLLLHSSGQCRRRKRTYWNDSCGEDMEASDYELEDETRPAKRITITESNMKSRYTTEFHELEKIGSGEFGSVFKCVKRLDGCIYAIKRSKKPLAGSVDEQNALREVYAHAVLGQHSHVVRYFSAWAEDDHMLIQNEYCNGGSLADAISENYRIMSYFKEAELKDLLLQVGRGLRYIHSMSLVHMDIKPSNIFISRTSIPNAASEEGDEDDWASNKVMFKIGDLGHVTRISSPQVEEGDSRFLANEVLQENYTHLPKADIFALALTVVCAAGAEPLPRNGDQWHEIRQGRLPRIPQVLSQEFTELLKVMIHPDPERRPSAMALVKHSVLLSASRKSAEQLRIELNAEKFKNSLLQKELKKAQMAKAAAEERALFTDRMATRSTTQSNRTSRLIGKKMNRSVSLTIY
T1 sequence (Q96SW2 whole entry): as the sequence (Q96SW2 whole entry) above
T1 sequence (Q16531 whole entry partner): as the sequence (Q16531 whole entry partner) above

| SMILES | Weel substrate protein remaining % (WEE1; [1]) | IKZF 1 substrate protein remaining % (IKZF1; [1]) | IKZF2 substrate protein remaining % (IKZF2; [1]) | CK1a substrate protein remaining % (CK1α; [1]) | IKZF3 substrate protein remaining % (IKZF3; [1]) | GSPT1 substrate protein remaining % (GSPT1; [1]) | Weel substrate protein remaining % (WEE1; [2]) | IKZF 1 substrate protein remaining % (IKZF1; [2]) | IKZF2 substrate protein remaining % (IKZF2; [2]) | CK1a substrate protein remaining % (CK1α; [2]) | IKZF3 substrate protein remaining % (IKZF3; [2]) | GSPT1 substrate protein remaining % (GSPT1; [2]) |
| --- | --- | --- | --- | --- | --- | --- | --- | --- | --- | --- | --- | --- |
| O=C1CCC(N2C(=O)c3ccc(CN4CCC(c5cccc(F)c5Cl)CC4)cc3C2=O)C(=O)N1 (stereo not drawn) [GT-06360, 5-((4-(2-chloro-3-fluorophenyl)piperidin-1-yl)methyl)-2-(2,6-dioxopiperidin-3-yl)isoindoline-1,3-dione] | A (0% ≤ substrate protein remaining % ≤ 80%) | A (0% ≤ substrate protein remaining % ≤ 80%) | A (0% ≤ substrate protein remaining % ≤ 80%) | B (80%< substrate protein remaining %≤ 100%) | B (80%< substrate protein remaining %≤ 100%) | A (0% ≤ substrate protein remaining % ≤ 80%) |  |  |  |  |  |  |
| O=C1CCC(N2Cc3cc(CN4CCN(Cc5ccc(C67CC8CC(CC(C8)C6)C7)cc5)CC4)ccc3C2=O)C(=O)N1 (stereo not drawn) [GT-03026, 3-(5-((4-(4-((3r,5r,7r)-adamantan-1-yl)benzyl)piperazin-1-yl)methyl)-1-oxoisoindolin-2-yl)piperidine-2,6-dione] |  |  |  |  |  |  | B (80%< substrate protein remaining %≤ 100%) | A (0% ≤ substrate protein remaining % ≤ 80%) | A (0% ≤ substrate protein remaining % ≤ 80%) | A (0% ≤ substrate protein remaining % ≤ 80%) | A (0% ≤ substrate protein remaining % ≤ 80%) | A (0% ≤ substrate protein remaining % ≤ 80%) |
| Cc1cc(N2CCN(Cc3ccc4c(c3)C(=O)N(C3CCC(=O)NC3=O)C4=O)CC2)ccn1 (stereo not drawn) [GT-06554, 2-(2,6-dioxopiperidin-3-yl)-5-((4-(2-methylpyridin-4-yl)piperazin-1-yl)methyl)isoindoline-1,3-dione] | B (80%< substrate protein remaining %≤ 100%) | B (80%< substrate protein remaining %≤ 100%) | A (0% ≤ substrate protein remaining % ≤ 80%) | B (80%< substrate protein remaining %≤ 100%) | B (80%< substrate protein remaining %≤ 100%) | A (0% ≤ substrate protein remaining % ≤ 80%) |  |  |  |  |  |  |
| Cc1cscc1C1CCN(Cc2ccc3c(c2)C(=O)N(C2CCC(=O)NC2=O)C3=O)CC1 (stereo not drawn) [GT-06282, 2-(2,6-dioxopiperidin-3-yl)-5-((4-(4-methylthiophen-3-yl)piperidin-1-yl)methyl)isoindoline-1,3-dione] | B (80%< substrate protein remaining %≤ 100%) | B (80%< substrate protein remaining %≤ 100%) | B (80%< substrate protein remaining %≤ 100%) | B (80%< substrate protein remaining %≤ 100%) | B (80%< substrate protein remaining %≤ 100%) | A (0% ≤ substrate protein remaining % ≤ 80%) |  |  |  |  |  |  |
| O=C1CCC(N2C(=O)c3ccc(CN4CCC(N5C(=O)COc6cc(F)ccc65)CC4)cc3C2=O)C(=O)N1 (stereo not drawn) [GT-06236, 2-(2,6-dioxopiperidin-3-yl)-5-((4-(7-fluoro-3-oxo-2,3-dihydro-4H-benzo[b][1,4]oxazin-4-yl)piperidin-1-yl)methyl)isoindoline-1,3-dione] |  |  |  |  |  |  | B (80%< substrate protein remaining %≤ 100%) | B (80%< substrate protein remaining %≤ 100%) | A (0% ≤ substrate protein remaining % ≤ 80%) | B (80%< substrate protein remaining %≤ 100%) | B (80%< substrate protein remaining %≤ 100%) | A (0% ≤ substrate protein remaining % ≤ 80%) |
